# Laboratory results taken from the NIST ThermoML archive (doi:10.1016/j.jct.2015.07.048).
# ± gives the expanded uncertainty stated by the source.
# Columns and labels:
# [1] = Liquid; for viscosity / electrical conductivity: 100 kPa; for viscosity: Cone and plate viscometry; for electrical conductivity: Direct current cell with electrodes; for mass density: 101.33 kPa, Vibrating tube method
# [2] = xn = mol fraction of the nth substance listed; conditions: 100 kPa, Liquid, x2 = 0; for viscosity: Cone and plate viscometry; for mass density: Vibrating tube method
smiles,measurement,setting,value
CCCn1cc[n+](C)c1.O=S(=O)([N-]S(=O)(=O)C(F)(F)F)C(F)(F)F,viscosity,[1]; 293.15 K,54.19 ± 1.1 mPa·s
same,electrical conductivity,[1]; 293.15 K,0.355 ± 0.011 S/m
same,mass density,[1]; 293.15 K,1479.32 ± 1.6 kg/m3
same,viscosity,[1]; 298.15 K,43.94 ± 0.9 mPa·s
same,electrical conductivity,[1]; 298.15 K,0.435 ± 0.013 S/m
same,mass density,[1]; 298.15 K,1474.24 ± 1.6 kg/m3
same,viscosity,[1]; 303.15 K,35.92 ± 0.74 mPa·s
same,electrical conductivity,[1]; 303.15 K,0.521 ± 0.016 S/m
same,mass density,[1]; 303.15 K,1469.4 ± 1.6 kg/m3
same,viscosity,[1]; 308.15 K,30 ± 0.62 mPa·s
same,electrical conductivity,[1]; 308.15 K,0.611 ± 0.018 S/m
same,mass density,[1]; 308.15 K,1464.43 ± 1.6 kg/m3
same,viscosity,[1]; 313.15 K,25.32 ± 0.52 mPa·s
same,electrical conductivity,[1]; 313.15 K,0.71 ± 0.021 S/m
same,mass density,[1]; 313.15 K,1459.44 ± 1.6 kg/m3
same,viscosity,[1]; 318.15 K,21.58 ± 0.44 mPa·s
same,electrical conductivity,[1]; 318.15 K,0.813 ± 0.024 S/m
same,mass density,[1]; 318.15 K,1454.63 ± 1.6 kg/m3
same,viscosity,[1]; 323.15 K,18.82 ± 0.39 mPa·s
same,electrical conductivity,[1]; 323.15 K,0.923 ± 0.028 S/m
same,mass density,[1]; 323.15 K,1449.73 ± 1.6 kg/m3
O=C1CCCO1 [γ-butyrolactone] + CCCn1cc[n+](C)c1.O=S(=O)([N-]S(=O)(=O)C(F)(F)F)C(F)(F)F,viscosity,[2]; 293.15 K,1.92 ± 0.04 mPa·s
same,mass density,[2]; 293.15 K,1129.2 ± 1.6 kg/m3
same,viscosity,[2]; 298.15 K,1.73 ± 0.04 mPa·s
same,mass density,[2]; 298.15 K,1124.26 ± 1.6 kg/m3
same,viscosity,[2]; 303.15 K,1.63 ± 0.04 mPa·s
same,mass density,[2]; 303.15 K,1119.33 ± 1.6 kg/m3
same,viscosity,[2]; 308.15 K,1.52 ± 0.03 mPa·s
same,mass density,[2]; 308.15 K,1114.31 ± 1.6 kg/m3
same,viscosity,[2]; 313.15 K,1.42 ± 0.03 mPa·s
same,mass density,[2]; 313.15 K,1109.23 ± 1.6 kg/m3
same,viscosity,[2]; 318.15 K,1.35 ± 0.03 mPa·s
same,mass density,[2]; 318.15 K,1104.1 ± 1.6 kg/m3
same,viscosity,[2]; 323.15 K,1.3 ± 0.03 mPa·s
same,mass density,[2]; 323.15 K,1098.88 ± 1.6 kg/m3
